In general, MRT refers to the average time that molecules of a dose stay in the body.

The source of these data is patent US20240247080A1, “GLP1/GIP/NPY2 RECEPTOR TRIPLE AGONISTS” (Boehringer Ingelheim International GmbH, priority 2022, published 2024).

Like-named read-outs stand apart in the source and are kept apart here.

Data set [1] can be described thus: Mouse PK after intravenous application. Particulars: plasma, mean residence time, intravenous 30-60 nmol/kg, male NMRI mice. It counts as in vivo. In outline: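 Male NMRI mice (30–40 g) received 30-60 nmol/kg peptide by tail-vein injection, dissolved in 50 mM phosphate buffer (pH 7.4)/3.5% mannitol. Saphenous blood was sampled up to 56 hours post-dose and EDTA plasma analysed by LC-MS. PK parameters came from non-compartmental analysis.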

The next data set addresses T1, hNPY2R (Homo sapiens, UniProt P49146).
T1 construct: expressed in transfected cells; host or cells: HEK-293 cells carrying a CRE-luciferase reporter gene
T1 sequence (P49146 1-381): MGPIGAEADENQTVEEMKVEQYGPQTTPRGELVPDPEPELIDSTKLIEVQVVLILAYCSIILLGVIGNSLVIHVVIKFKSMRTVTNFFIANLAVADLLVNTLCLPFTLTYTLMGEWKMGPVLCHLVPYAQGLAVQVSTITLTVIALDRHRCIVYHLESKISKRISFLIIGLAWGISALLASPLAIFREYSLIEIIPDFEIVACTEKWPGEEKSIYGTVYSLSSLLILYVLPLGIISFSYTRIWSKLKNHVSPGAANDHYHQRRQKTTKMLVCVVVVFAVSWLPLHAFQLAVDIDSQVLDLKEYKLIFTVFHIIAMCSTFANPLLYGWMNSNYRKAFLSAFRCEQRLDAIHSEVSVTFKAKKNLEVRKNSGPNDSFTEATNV
Kind of data set: hNPY2R CreLuc reporter gene assay in 0.5% and 100% plasma. Particulars: CreLuc reporter gene assay. Format: cell-based. In outline:
(§1)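 HEK cells (GLP-1R, NPY2R) or CHO cells (GIPR) carrying a CRE-luciferase reporter, incubated 4 h at 37 °C with peptides in HBSS/20 mM HEPES pH 7.4 plus 0.5% human plasma, or in 100% plasma. Luminescence read; EC50 from 8-point variable-slope sigmoid fits.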
For orientation: A reporter such as luciferase makes a cellular process visible.

Another data set has as its target T2, hGIPR (Homo sapiens, UniProt P48546).
T2 construct: expressed in transfected cells; host or cells: CHO cells carrying a CRE-luciferase reporter gene
T2 sequence (P48546 22-466): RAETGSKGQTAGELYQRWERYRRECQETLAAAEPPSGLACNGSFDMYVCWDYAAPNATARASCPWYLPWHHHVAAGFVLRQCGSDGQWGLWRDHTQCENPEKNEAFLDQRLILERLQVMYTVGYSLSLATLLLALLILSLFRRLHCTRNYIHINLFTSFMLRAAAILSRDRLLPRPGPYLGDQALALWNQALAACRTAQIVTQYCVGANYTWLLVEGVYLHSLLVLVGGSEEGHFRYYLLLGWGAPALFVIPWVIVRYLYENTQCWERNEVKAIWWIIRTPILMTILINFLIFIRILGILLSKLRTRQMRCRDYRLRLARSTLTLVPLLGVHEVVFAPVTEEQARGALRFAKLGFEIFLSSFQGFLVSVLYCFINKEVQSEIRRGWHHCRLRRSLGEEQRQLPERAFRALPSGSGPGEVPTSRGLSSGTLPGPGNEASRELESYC
Kind of data set: hGIPR CreLuc reporter gene assay in 0.5% and 100% plasma. It counts as cell-based. The conditions noted are these: CreLuc reporter gene assay. In outline:
as §1

Data set [2] is described as follows: Effect on acute food intake in normal NMRI mice. Format: in vivo. Particulars: 30 nmol/kg subcutaneously once, normalized to vehicle group, male NMRI mice. As to the method:
Example 4: Effect on Acute Food Intake in Normal NMRI Mice
Male NMRI mice were obtained from Janvier (Janvier Labs, France) or from Charles River (Charles River Research Models & Services Germany GmbH) at the age of 3 weeks. The animals get a microchip (Datamars, Slim Microchip T-SL) for individual identification after delivery. They were housed with 4 mice per cage under a 12/12 dark-light cycle, light off at 3 p.m. Room temperature was controlled to 21° C. +/−1° C. and humidity 60%+/−20%. Mice had ad libitum access to regular rodent chow (KLIBA Nafag 3040 or Altromin 1324, Brogaarden, Denmark) and tap water.
Latest transfer into the HM2-System of MBRose, Denmark (real-time monitoring system of food- and water intake) of the animals 5 days before study start, to allow acclimatization to experimental conditions. As the animals were uniquely identified with the microchips, each individual animal was identified by its own microchip upon entry and exit from the food channel via antennae. Randomization of the mice for each study group (n=8; age earliest 6 weeks old) was based on food intake (middle of last three days 24 h-Intervall) and bodyweight directly before start of the study. A vehicle treated (50 mM phosphate buffer pH7.4 with 3.5% Mannitol) group was included in each experiment. To have the same nutrition standard for each animal the food access was locked eight hours before dark phase. One hour before night, the animals were once treated subcutaneously with the test peptide. Food intake was reported hourly for a period of 24 h.

A further data set has as its target T3, hGLP1R (Homo sapiens, UniProt P43220).
T3 construct: expressed in transfected cells; host or cells: HEK-293 cells carrying a CRE-luciferase reporter gene
Briefly: hGLP1R CreLuc reporter gene assay in 0.5% and 100% plasma. Format: cell-based. Particulars: CreLuc reporter gene assay. The method, boiled down: as §1

[3] abbreviates: 0.5% human plasma, read-out: hNPY2R 0.5% hP.
[4] abbreviates: 100% human plasma, read-out: hNPY2R 100% hP.
Where [5] appears, read: 0.5% human plasma, read-out: hGIPR 0.5% hP.
The mark [6] stands for this setting: 0.5% human plasma, read-out: hGLP1R 0.5% hP.

T3 sequence (P43220 24-463): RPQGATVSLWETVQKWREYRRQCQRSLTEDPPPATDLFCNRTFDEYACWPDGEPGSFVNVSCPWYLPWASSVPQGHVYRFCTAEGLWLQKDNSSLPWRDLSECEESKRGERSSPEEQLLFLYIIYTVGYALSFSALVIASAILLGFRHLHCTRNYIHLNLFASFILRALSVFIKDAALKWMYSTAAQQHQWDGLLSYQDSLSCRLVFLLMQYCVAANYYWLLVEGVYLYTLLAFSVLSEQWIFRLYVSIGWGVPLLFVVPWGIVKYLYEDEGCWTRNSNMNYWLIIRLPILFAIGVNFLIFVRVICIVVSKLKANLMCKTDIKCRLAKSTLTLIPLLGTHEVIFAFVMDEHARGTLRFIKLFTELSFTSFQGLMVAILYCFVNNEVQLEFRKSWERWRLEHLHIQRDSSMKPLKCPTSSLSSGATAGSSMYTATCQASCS

As for `CC[C@H](C)[C@H](NC(=O)[C@H](CC(C)C)NC(=O)[C@H](Cc1c[nH]c2ccccc12)NC(=O)[C@H](CCC(=O)O)NC(=O)[C@@H](NC(=O)[C@H](Cc1ccccc1)NC(=O)[C@H](C)NC(=O)C(C)(C)NC(=O)[C@H](CCC(N)=O)NC(=O)[C@H](C)NC(=O)[C@H](CCC(N)=O)NC(=O)[C@H](CCCCN)NC(=O)[C@H](CCC(=O)O)NC(=O)[C@H](CC(C)C)NC(=O)C(C)(C)NC(=O)[C@@H](NC(=O)[C@H](CO)NC(=O)[C@H](Cc1ccc(O)cc1)NC(=O)[C@H](CC(=O)O)NC(=O)[C@H](CO)NC(=O)[C@@H](NC(=O)[C@H](Cc1ccccc1)NC(=O)[C@@H](NC(=O)CNC(=O)[C@H](CCC(=O)O)NC(=O)C(C)(C)NC(=O)[C@@H](N)Cc1ccc(O)cc1)[C@@H](C)O)[C@@H](C)O)[C@@H](C)CC)C(C)C)C(=O)N[C@@H](CCCCNC(=O)[C@@H](N)CCCCNC(=O)CC[C@H](NC(=O)CC[C@H](NC(=O)CC[C@H](NC(=O)CC[C@H](NC(=O)CC[C@H](NC(=O)CC[C@H](NC(=O)CCCCCCCCCCCCCCCCCCC(=O)O)C(=O)O)C(=O)O)C(=O)O)C(=O)O)C(=O)O)C(=O)O)C(=O)NCC(=O)NCC(=O)N1CCC[C@H]1C(=O)N[C@@H](CO)C(=O)N[C@@H](CO)C(=O)NCC(=O)N[C@@H](C)C(=O)N[C@@H](CO)C(=O)N[C@@H](CC(C)C)C(=O)N[C@@H](CCCNC(=N)N)C(=O)N[C@@H](Cc1c[nH]cn1)C(=O)N[C@@H](Cc1ccc(O)cc1)C(=O)N[C@@H](Cc1ccc(O)cc1)C(=O)N[C@@H](CC(N)=O)C(=O)N[C@@H](Cc1c[nH]c2ccccc12)C(=O)N[C@@H](CC(C)C)C(=O)N[C@H](C(=O)N[C@@H](CCCNC(=N)N)C(=O)N[C@@H](CCC(N)=O)C(=O)N[C@@H](CCCNC(=N)N)C(=O)N[C@@H](Cc1ccc(O)cc1)C(N)=O)[C@@H](C)O` [Compound 221, Y-Aib-E-G-T-F-T-S-D-Y-S-I-Aib-L-E-K-Q-A-Q-Aib-A-F-V-E-W-L-I-K(1,3)-GGPSSGASLRHYYNWLTRQRY-NH2.C20DA-gGlu-gGlu-gGlu-gGlu-gGlu-gGlu-eLys(1,2)], in data set [1], the MRT is 11 h. In addition, the EC50 was determined as 12.4 nM at hNPY2R (setting [3]), 49.3 nM at hNPY2R (setting [4]), 0.14 nM at hGIPR (setting [5]) and 0.11 nM at hGLP1R (setting [6]). Besides, in data set [2], the “Acute Food Intake 24 h 30 nmol/kg [% CTL]” value turned out to be 51 % CTL.

`CC[C@H](C)[C@H](NC(=O)[C@H](CC(C)C)NC(=O)[C@H](Cc1c[nH]c2ccccc12)NC(=O)[C@H](CCC(=O)O)NC(=O)[C@@H](NC(=O)[C@H](Cc1ccccc1)NC(=O)[C@H](C)NC(=O)C(C)(C)NC(=O)[C@H](CCC(N)=O)NC(=O)[C@H](C)NC(=O)[C@H](CCC(N)=O)NC(=O)[C@H](CCCCN)NC(=O)[C@H](CCC(=O)O)NC(=O)[C@H](CC(C)C)NC(=O)C(C)(C)NC(=O)[C@@H](NC(=O)[C@H](CO)NC(=O)[C@H](Cc1ccc(O)cc1)NC(=O)[C@H](CC(=O)O)NC(=O)[C@H](CO)NC(=O)[C@@H](NC(=O)[C@H](Cc1ccccc1)NC(=O)[C@@H](NC(=O)CNC(=O)[C@H](CCC(=O)O)NC(=O)C(C)(C)NC(=O)[C@@H](N)Cc1ccc(O)cc1)[C@@H](C)O)[C@@H](C)O)[C@@H](C)CC)C(C)C)C(=O)N[C@@H](CCCCNC(=O)[C@@H](N)CCCCNC(=O)CC[C@H](NC(=O)CC[C@H](NC(=O)CC[C@H](NC(=O)CC[C@H](NC(=O)CC[C@H](NC(=O)CC[C@H](NC(=O)CCCCCCCCCCCCCCCCCCC(=O)O)C(=O)O)C(=O)O)C(=O)O)C(=O)O)C(=O)O)C(=O)O)C(=O)NCC(=O)NCC(=O)N1CCC[C@H]1C(=O)N[C@@H](CO)C(=O)N[C@@H](CCC(=O)O)C(=O)NCC(=O)N[C@@H](C)C(=O)N[C@@H](CO)C(=O)N[C@@H](CC(C)C)C(=O)N[C@@H](CCCNC(=N)N)C(=O)N[C@@H](Cc1c[nH]cn1)C(=O)N[C@@H](Cc1ccc(O)cc1)C(=O)N[C@@H](Cc1ccc(O)cc1)C(=O)N[C@@H](CC(N)=O)C(=O)N[C@@H](Cc1c[nH]c2ccccc12)C(=O)N[C@@H](CC(C)C)C(=O)N[C@H](C(=O)N[C@@H](CCCNC(=N)N)C(=O)N(C)[C@@H](CCC(N)=O)C(=O)N[C@@H](CCCNC(=N)N)C(=O)N[C@@H](Cc1ccc(O)cc1)C(N)=O)[C@@H](C)O` [Compound 222, Y-Aib-E-G-T-F-T-S-D-Y-S-I-Aib-L-E-K-Q-A-Q-Aib-A-F-V-E-W-L-I-K(1,3)-G-G-P-S-E-G-A-S-L-R-H-Y-Y-N-W-L-T-R-NMeQ-R-Y-NH2.C20DA-gGlu-gGlu-gGlu-gGlu-gGlu-gGlu-eLys(1,2)] registered an MRT in data set [1] of 11.8 h. Also, the EC50 was 13.3 nM on hNPY2R (setting [3]), 0.19 nM at hGIPR (setting [5]) and 0.24 nM on hGLP1R (setting [6]). Besides, the “Acute Food Intake 24 h 30 nmol/kg [% CTL]” value in data set [2] stood at 72 % CTL.

In data set [1], `CC[C@H](C)[C@H](NC(=O)[C@H](CC(C)C)NC(=O)[C@H](Cc1c[nH]c2ccccc12)NC(=O)[C@H](CCC(=O)O)NC(=O)[C@@H](NC(=O)[C@H](Cc1ccccc1)NC(=O)[C@H](C)NC(=O)C(C)(C)NC(=O)[C@H](CCC(N)=O)NC(=O)[C@H](C)NC(=O)[C@H](CCC(N)=O)NC(=O)[C@H](CCCCN)NC(=O)[C@H](CCC(=O)O)NC(=O)[C@H](CC(C)C)NC(=O)C(C)(C)NC(=O)[C@@H](NC(=O)[C@H](CO)NC(=O)[C@H](Cc1ccc(O)cc1)NC(=O)[C@H](CC(=O)O)NC(=O)[C@H](CO)NC(=O)[C@@H](NC(=O)[C@H](Cc1ccccc1)NC(=O)[C@@H](NC(=O)CNC(=O)[C@H](CCC(=O)O)NC(=O)C(C)(C)NC(=O)[C@@H](N)Cc1ccc(O)cc1)[C@@H](C)O)[C@@H](C)O)[C@@H](C)CC)C(C)C)C(=O)N[C@@H](CCCCNC(=O)[C@@H](N)CCCCNC(=O)CC[C@H](NC(=O)CC[C@H](NC(=O)CC[C@H](NC(=O)CC[C@H](NC(=O)CC[C@H](NC(=O)CC[C@H](NC(=O)CCCCCCCCCCCCCCCCC(=O)O)C(=O)O)C(=O)O)C(=O)O)C(=O)O)C(=O)O)C(=O)O)C(=O)NCC(=O)NCC(=O)N1CCC[C@H]1C(=O)N[C@@H](CO)C(=O)N[C@@H](CO)C(=O)NCC(=O)N[C@@H](C)C(=O)N[C@@H](CO)C(=O)N[C@@H](CC(C)C)C(=O)N[C@@H](CCCNC(=N)N)C(=O)N[C@@H](Cc1c[nH]cn1)C(=O)N[C@@H](Cc1ccc(O)cc1)C(=O)N[C@@H](Cc1ccc(O)cc1)C(=O)N[C@@H](CC(N)=O)C(=O)N[C@@H](Cc1c[nH]c2ccccc12)C(=O)N[C@@H](CC(C)C)C(=O)N[C@H](C(=O)N[C@@H](CCCNC(=N)N)C(=O)N[C@@H](CCC(N)=O)C(=O)N[C@@H](CCCNC(=N)N)C(=O)N[C@@H](Cc1ccc(O)cc1)C(N)=O)[C@@H](C)O` [Compound 259, Y-Aib-E-G-T-F-T-S-D-Y-S-I-Aib-L-E-K-Q-A-Q-Aib-A-F-V-E-W-L-I-K(1,3)-GGPSSGASLRHYYNWLTRQRY-NH2.C18DA-gGlu-gGlu-gGlu-gGlu-gGlu-gGlu-eLys(1,2)] registered a mean residence time (MRT) of 8.4 h. Moreover, the EC50 on hNPY2R (setting [3]) stood at 10.7 nM; at hNPY2R (setting [4]), 29.3 nM; at hGIPR (setting [5]) it was 0.22 nM; on hGIPR (100% human plasma, read-out: hGIPR 100% hP) it was 0.91 nM; on hGLP1R (setting [6]), 0.09 nM; on hGLP1R (100% human plasma, read-out: hGLP1R 100% hP), 2.55 nM. Also, in data set [2], the “Acute Food Intake 24 h 30 nmol/kg [% CTL]” value turned out to be 36 % CTL.
